Assay results: US20170014455A1, “INDUCING BROWN FAT FATE AND FUNCTION” (The J. David Gladstone Instiutes, a testamentary trust …, priority 2014, published 2017)

Experiments:
C3H10T1/2 cells = experiment: Ciclopirox and IOX2 gene expression in C3H10T1/2 cells; format: cell-based; details: 0.1 μM to 50 μM
Procedure: (§1) C2C12, 3T3-L1 and C3H10T1/2 cells were purchased from ATCC. Primary brown pre-adipocytes were kindly donated by Prof. C. Ronald Kahn (Harvard University). Primary myoblasts were purified from mouse limb muscles and cultured in growth medium (F10+20% FBS+5 ng/ml bFGF) in Matrigel-coated plates (Xiao et al., Cell Res 21, 350-364 (2011)). Adipocyte differentiation was induced by treating cells for 2 days in basal adipogenesis medium (AM) (850 nM insulin, 1 nM T3, 0.5 mM isobuylmethylxanthine, […] indomethacin, 5 μM dexamethasone in10% FBS DMEM). Then cells were switched to 10% FBS DMEM containing 850 nM insulin and 1 nM T3 for another 4-6 days. To stimulate thermogenesis, cells were stimulated with 10 μM forskolin for 4 h.
(§2) Total RNA from cell lines were purified using Qiagen kit, and total RNA from mouse tissues was extracted using Trizol. Complementary DNA was prepared from total RNA with the iScript DNA synthesis kit (Bio-Rad). Quantitative PCR reactions contained SYBR-Green fluorescent dye (ABI). RT-PCR was also used to confirm some gene expression. Relative mRNA expression was determined by the ΔΔ-Ct method with GAPDH as an endogenous control.
C3H10T1/2 cells were incubated in concentrations of ciclopirox and IOX2 that varied from 0.1 μM to 50 μM. Gene expression levels of genes correlated with the brown adipose tissue phenotype was measured using procedures described in Example 1.

[1] = system: primary brown pre-adipocytes (pre-BAT); experiment: Differentiation of primary brown pre-adipocytes; format: cell-based
Procedure: as §1, §2
Primary brown pre-adipocytes cells efficiently differentiated into brown adipose tissue in the conventional adipogenesis medium.

[2] = system: 3T3-L1 white pre-adipocytes; experiment: Differentiation and gene expression of 3T3-L1 white pre-adipocytes under brown adipogenic conditions; format: cell-based
Procedure: (§3) C2C12, 3T3-L1 and C3H10T1/2 cells were purchased from ATCC. Primary brown pre-adipocytes were kindly donated by Prof. C. Ronald Kahn (Harvard University). […] Then cells were switched to 10% FBS DMEM containing 850 nM insulin and 1 nM T3 for another 4-6 days. To stimulate thermogenesis, cells were stimulated with 10 μM forskolin for 4 h.
as §2

[3] = system: C3H10T1/2 mesenchymal cells; experiment: Adipogenic induction and gene expression in C3H10T1/2 mesenchymal cells; format: cell-based
Procedure: as §3, §2

C2C12 myoblast cell line = experiment: Adipogenesis of C2C12 myoblasts, Oil-red-O staining of lipid droplets (high-throughput phenotypic screen and follow-up); format: cell-based, mouse
Procedure: as §1
To identify small molecules that mimic the BAT-inducing activity of Prdm16, a high-throughput phenotypic screen of 20,000 compounds was performed using the C2C12 myoblast cell line with lipid droplets stained by Oil-red-O (ORO) as readout (FIG. 1A). […] In the basal adipogenesis medium (AM), no adipocyte-like cells could be induced from C2C12 myoblasts.

[4] = Oral bexarotene in chow-fed mice: body weight, indirect calorimetry, fat depots, tissue qPCR; format: in vivo, C57BL/6N mice; details: 50 mg/kg/day oral, 4 weeks
Procedure: as §2
C57BL/6N mice were fed ad libitum a standard laboratory chow diet (LabDiet 5053, LabDiet, Purina Mills, Richmond, Ind.). Animals were housed under 12-hour light-dark cycles with controlled temperature (23±1° C.). […] All animal experiments were conducted in accordance with the institutional Guidelines for humane treatment of laboratory animals of HKU Animal Care and Use Committee.
Whole-body oxygen consumption was measured using an open circuit indirect calorimetry system with automatic temperature and light controls (Columbus Instruments). Mice had access ad libitum to chow and water in respiration chambers, and data were recorded for a 48 h period […] acclimatized for 24 h.

[5] = system: C2C12 cells over-expressing RXRα, RXRβ or RXRγ; experiment: Bexarotene in C2C12 cells overexpressing RXRα, RXRβ or RXRγ; format: cell-based, mouse
Procedure: as §1
Mouse retinoid X receptor-alpha (RXRα) and retinoid X receptor-gamma (RXRγ) plasmids were from Dr. Ronald Evans (Salk Institute) and mouse RXRβ plasmid was purchased from Origene. These three RXR fragments were subcloned into pMXs vectors to generate a retrovirus construct (Yamanaka lab, Gladstone Institutes). Non-target shRNA(shNT), shRXRα, shRXRβ, and shRXRγ lentivirus constructs were purchased from Sigma-Aldrich. Retrovirus and lentivirus constructs were packaged in Plat E and 293T cells, respectively.
as §2
To further characterize the role of retinoid receptors, the RXRα, RXRβ and RXRγ subtype receptors were overexpressed in C2C12 cells.

C2C12 cells [6] = details: 2-day treatment
Procedure: Mouse genome-wide gene expression analyses were performed using Affymetrix Mouse Gene 1.0 ST Array. […] Microarray analyses were performed in duplicate from independent biologic samples, according to the standard Affymetrix Genechip protocol. Data were normalized and analyzed using Affymetrix Expression Console and Transcriptome Analysis Console (TAC) software. […] The differential expression gene list was further analyzed in DAVID GO functional annotation and GO-Elite (Zambon et al., Bioinformatics 28: 2209-2210 (2012)).

C2C12 cells [7] = experiment: Real-time PCR gene expression in C2C12 cells during adipogenesis; format: cell-based, mouse
Procedure: as §1, §2

[8] = Bexarotene in high fat diet mice: body weight, fat weights, GTT, ITT; format: in vivo, C57BL/6J mice; details: 50 mg/kg daily i.p., high fat diet 4 weeks
Procedure: Male mice (8-week-old, C57BL/6J) were housed in metabolism cages and maintained on a 12 h light-dark cycle at 23° C. The mice were fed a high fat diet (HFD) (21.9 kJ/g, 60% of energy as fat, 20% of energy as protein, 20% of energy as carbohydrate; D12492; Research Diet, New Brunswick, N.J., USA) for four weeks.
Glucose and insulin tolerance tests were performed on the mice at the end of the four week dosing period. Mice were fasted overnight and injected intraperitoneally (i.p.) with 20% glucose at a dose of 2 g/kg body weight for glucose tolerance tests (GTTs). For insulin tolerance tests (ITTs), mice were starved for 6 h and i.p. injected with 0.5 U/kg body weight of recombinant human insulin (Eli Lilly). Blood glucose was monitored from the tail vein blood using a glucometer (ACCU-CHEK Advantage; Roche Diagnostics China, Shanghai, China) at various time points. Mouse body weight, subcutaneous (inguinal fat; SubQ fat), and epididymal adipose tissue weight (epidi weight) were also determined at the end of the 4 week test.

primary myoblasts = experiment: Bexarotene with PRDM16 overexpression in primary myoblasts; format: cell-based, mouse
Procedure: as §1, §2

[9] = system: primary mouse embryonic fibroblast (MEF) cells; experiment: Adipogenesis and gene expression in primary mouse embryonic fibroblasts; format: cell-based
[10] = brown adipogenic differentiation conditions

O=C(O)CNC(=O)c1c(O)c2ccccc2n(Cc2ccccc2)c1=O [IOX2]
expression of PPARγ and several brown adipocyte-specific genes (C3H10T1/2 cells): significantly induced | response of BAT-like adipocytes to forskolin (Ucp1, Pgc1α) (C3H10T1/2 cells): readily responded to forskolin

Cc1cc(C2CCCCC2)n(O)c(=O)c1 [ciclopirox]
expression of PPARγ and several brown adipocyte-specific genes (C3H10T1/2 cells): significantly induced | response of BAT-like adipocytes to forskolin (Ucp1, Pgc1α) (C3H10T1/2 cells): readily responded to forskolin

CN1c2ccc([N+](=O)[O-])cc2N=C(c2ccc(C(=O)O)cc2)c2cc3c(cc21)C(C)(C)CCC3(C)C [HX531]
Bex-induced BAT differentiation ([1]; with bexarotene): reduced | white adipose tissue adipogenesis [2]: promoted | white adipose tissue adipogenesis [3]: promoted | bexarotene-induced brown adipogenic induction (C2C12 myoblast cell line; with bexarotene, first 2 days, 10 μM each): completely abolished

C=C(c1ccc(C(=O)O)cc1)c1cc2c(cc1C)C(C)(C)CCC2(C)C [bexarotene]
expression of PPARγ and BAT-associated genes incl. Prdm16 and Pgc1α [1]: higher levels of expression | induction of Ucp1 and Pgc1α expression in response to forskolin ([1]; differentiated BAT adipocytes): potentiated | Ucp1 expression in subcutaneous white adipose tissue (subWAT) ([4]; qPCR): significantly induced although to a lesser extent | thermogenic gene expression (Ucp1, Pgc1α) in brown adipose tissue ([4]; qPCR): marked augmentation | interscapular brown adipose tissue mass (absolute and portion of body weight) ([4]; vs control): increased significantly | lipid droplets in brown adipose tissue (H&E) ([4]; vs control): similar, if not smaller | white adipose tissue depots (subWAT, epiWAT) mass ([4]; vs control): no statistically significant change | body weight gain ([4]; vs saline): smaller gain in body weight | carbon dioxide release (VCO2) ([4]; vs saline): released more CO2 | oxygen consumption (VO2) ([4]; vs saline): consumed more oxygen | physical activity ([4]; vs saline): without changes in physical activity | total energy expenditure (heat generation) ([4]; vs saline): significantly more total energy was expended | response to forskolin stimulation [2]: more robust response | BAT features (small lipid droplets, Ucp1 expression) [2, 10]: induced | white adipose tissue differentiation and PPARγ expression [2, 10]: significantly suppressed | induction of Ucp1 and Pgc1α expression compared with cPGI2 [3]: much greater than that of the COX-2 agonist cPGI2 | brown phenotype (thermogenic gene expression to forskolin stimulation) ([3]; 2 days at the beginning of adipogenic induction): induced the brown phenotype | small multilocular lipid droplets and BAT-specific genes Ucp1, Prdm16, PPARα, Pgc1α, Cox7a1, Cox8b ([3]; RXRα or RXRγ overexpression, adipogenic induction): induced | cells reprogrammed to brown adipose-like cells with multilocular lipid droplets ([5]; RXRα or RXRγ overexpression): nearly all cells | Prdm16 and Ucp1 expression at early stage ([5]; RXRα-overexpressed C2C12 cells, before typical adipocytes appeared): induced Prdm16 expression and even more dramatically induced Ucp1 expression | myogenic genes Myf5, MyoD, MyoG and MHCβ ([5]; bexarotene/RXR reprogrammed cells): dramatically attenuated | Ucp1 expression response to forskolin ([5]; bexarotene/RXR-induced BAT-like cells): robustly responded | adipogenic reprogramming (C2C12 myoblast cell line; added for 2 days in basal adipogenesis medium): dramatically initiated adipogenic reprogramming in C2C12 cells in a dose-dependent manner | appearance of lipid droplets (Oil-red-O) (C2C12 myoblast cell line; high-throughput screen of 20,000 compounds): led to the appearance of lipid droplets | expression of browning genes Fgf21, Pgc1α, Ppargc1a, Acsl1, Tbx15, Ptgs2, G0S2 (C2C12 cells [6]): increased expression | white adipogenesis-associated genes Bmp4 and Egr2 (C2C12 cells [6]): repressed | levels of PPARγ, Fabp4, CD36 and RXR/PPARγ targets Pex11a, Angpt14, HK2 (C2C12 cells [7]; Day 2, qPCR confirmation): significantly increased | expression of PPARγ, Prdm16 and Pgc1α (C2C12 cells [7]; adipogenesis medium, qPCR Day 6): significantly induced | response of induced BAT-like adipocytes to forskolin (Ucp1, Pgc1α) (C2C12 cells [7]; forskolin stimulation 4 h): readily responded to forskolin | glucose tolerance test [8]: improved glucose homeostasis | insulin tolerance test [8]: responded to insulin more sensitively | body weight ([8]; vs control): lower body weight | epididymal adipose tissue ([8]; vs control): less epididymal adipose tissue | subcutaneous (inguinal) fat ([8]; vs control): less subcutaneous fat | potentiation of Prdm16 overexpression-induced Ucp1 expression (primary myoblasts; Prdm16 overexpression): more than fourfold | lipid droplet size (primary myoblasts; added to PRDM16 overexpression vs PRDM16 overexpression alone): much smaller lipid droplets | brown phenotype / browning [9]: induced a strong brown phenotype | white adipogenic phenotype [9]: apparently suppressing | Ucp1 expression ([9]; even without forskolin stimulation): induced in a dose-dependent manner
